Experimental data as given in patent US12180193B2, “Accelerating fibrosarcoma protein degrading compounds and associated methods of use” (Arvinas Operations, Inc., priority 2020, dated 2024).
Like-named read-outs stand apart in the source and are kept apart here. Each block holds one molecule with its values, some of them ahead of it.

Tests used:
BRAF V600E = target: T1, BRAF V600E (Homo sapiens, UniProt P15056, V600E); assay: Cellular assay of target protein degradation, T-Rex 293 cells stably transfected with HA-BRAF_V600E (HA immunofluorescence, high content imaging); format: cell-based
T1 construct: expressed in transfected cells
T1 sequence (P15056 whole entry V600E): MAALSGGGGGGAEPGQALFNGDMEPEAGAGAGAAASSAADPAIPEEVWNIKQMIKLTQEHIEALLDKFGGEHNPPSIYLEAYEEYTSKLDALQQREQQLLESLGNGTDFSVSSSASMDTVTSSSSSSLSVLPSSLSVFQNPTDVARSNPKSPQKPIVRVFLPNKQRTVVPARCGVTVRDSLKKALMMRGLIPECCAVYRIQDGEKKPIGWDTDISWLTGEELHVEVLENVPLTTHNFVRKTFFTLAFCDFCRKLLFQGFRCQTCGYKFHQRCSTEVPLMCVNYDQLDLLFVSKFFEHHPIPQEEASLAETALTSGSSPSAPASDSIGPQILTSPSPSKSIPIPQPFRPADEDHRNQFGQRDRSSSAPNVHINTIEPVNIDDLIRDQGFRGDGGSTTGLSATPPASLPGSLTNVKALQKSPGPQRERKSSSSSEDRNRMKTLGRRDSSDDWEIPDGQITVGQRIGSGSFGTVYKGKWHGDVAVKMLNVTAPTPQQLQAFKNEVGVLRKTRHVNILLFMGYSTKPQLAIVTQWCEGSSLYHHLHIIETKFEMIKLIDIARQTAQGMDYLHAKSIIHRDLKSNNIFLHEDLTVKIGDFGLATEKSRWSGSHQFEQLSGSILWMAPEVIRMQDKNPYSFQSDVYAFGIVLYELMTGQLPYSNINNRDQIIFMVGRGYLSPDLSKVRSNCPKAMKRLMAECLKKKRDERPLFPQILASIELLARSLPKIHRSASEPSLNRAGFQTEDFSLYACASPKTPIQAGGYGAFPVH
Outline: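 Degradation of the HA-tagged construct is measured after 24 h treatment at 37 °C across 1 μM to 0.1 nM in 0.1% DMSO, in doxycycline-induced (1 ng/mL) cells. DC50 and Dmax come from HA fluorescence imaging.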

BRAF G466V = target: T2, BRAF G466V (Homo sapiens, UniProt P15056, G466V); assay: Cellular assay of target protein degradation, T-Rex 293 cells stably transfected with HA-BRAF G466V (HA immunofluorescence, high content imaging); format: cell-based
T2 construct: expressed in transfected cells
T2 sequence (P15056 whole entry G466V): as the sequence (P15056 whole entry V600E) above, with G466V, E600V counted along it
Outline: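 Dose range spans 30 nM to 3 pM (0.1% DMSO) over 24 hours at 37° C, in cells induced with 0.75 ng/mL doxycycline. Fixed cells are probed with anti-HA antibody overnight at 4° C, then imaged; half-maximal degradation and maximum degradation are derived.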

[1] = half maximal degradation, T-Rex 293 HA-BRAF V600E; read-out: BRaf V600E DC50
[2] = maximum degradation observed, T-Rex 293 HA-BRAF V600E
[3] = half maximal degradation, T-Rex 293 HA-BRAF G466V; read-out: BRaf G466V DC50
[4] = maximum degradation observed, T-Rex 293 HA-BRAF G466V

DC50 (BRAF V600E; [1]): 5 to 50 nM
Dmax (BRAF V600E; [2]): 35 to 70%
DC50 (BRAF G466V; [3]): 1 to 10 nM
Dmax (BRAF G466V; [4]): 35 to 70%
SMILES: O=C1CCC(N2Cc3cc(N4CCN(C[C@H](O)Cc5ccc(-c6cnc7[nH]cc(C(=O)c8c(F)ccc(NS(=O)(=O)N9CC[C@@H](F)C9)c8F)c7c6)cc5)CC4)ccc3C2=O)C(=O)N1 (stereo partly drawn) [Compound 90, (3R)—N-[3-[5-[4-[(2R)-3-[4-[2-(2,6-dioxo-3-piperidyl)-1-oxo-isoindolin-5-yl]piperazin-1-yl]-2-hydroxy-propyl]phenyl]-1H-pyrrolo[2,3-b]pyridine-3-carbonyl]-2,4-difluoro-phenyl]-3-fluoro-pyrrolidine-1-sulfonamide]

DC50 (BRAF V600E; [1]): 5 to 50 nM
Dmax (BRAF V600E; [2]): 35 to 70%
DC50 (BRAF G466V; [3]): 1 to 10 nM
Dmax (BRAF G466V; [4]): > 70%
SMILES: O=C1CCC(N2Cc3cc(C4CCN(CC5CCN(c6c(F)cc(-c7cnc8[nH]cc(C(=O)c9c(F)ccc(NS(=O)(=O)N%10CC[C@@H](F)C%10)c9F)c8c7)cc6F)CC5)CC4)ccc3C2=O)C(=O)N1 (stereo partly drawn) [Compound 94, (3R)-N-[3-(5-{4-[4-({4-[2-(2,6-dioxopiperidin-3-yl)-1-oxo-2,3-dihydro-1H-isoindol-5-yl]piperidin-1-yl}methyl)piperidin-1-yl]-3,5-difluorophenyl}-1H-pyrrolo[2,3-b]pyridine-3-carbonyl)-2,4-difluorophenyl]-3-fluoropyrrolidine-1-sulfonamide]

DC50 (BRAF V600E; [1]): 5 to 50 nM
Dmax (BRAF V600E; [2]): 35 to 70%
DC50 (BRAF G466V; [3]): 1 to 10 nM
Dmax (BRAF G466V; [4]): > 70%
SMILES: O=C1CCC(N2Cc3cc(N4CCN(C[C@@H](O)Cc5ccc(-c6cnc7[nH]cc(C(=O)c8c(F)ccc(NS(=O)(=O)N9CC[C@@H](F)C9)c8F)c7c6)cc5)CC4)ccc3C2=O)C(=O)N1 (stereo partly drawn) [Compound 98, (3R)-N-[3-(5-{4-[(2S)-3-{4-[2-(2,6-dioxopiperidin-3-yl)-1-oxo-2,3-dihydro-1H-isoindol-5-yl]piperazin-1-yl}-2-hydroxypropyl]phenyl}-1H-pyrrolo[2,3-b]pyridine-3-carbonyl)-2,4-difluorophenyl]-3-fluoropyrrolidine-1-sulfonamide]

DC50 (BRAF V600E; [1]): 5 to 50 nM
Dmax (BRAF V600E; [2]): 35 to 70%
DC50 (BRAF G466V; [3]): 1 to 10 nM
Dmax (BRAF G466V; [4]): > 70%
SMILES: O=C1CC[C@@H](N2Cc3cc(C4CN(CC5CC6(C5)CN(c5ccc(-c7cnc8[nH]cc(C(=O)c9c(F)ccc(NS(=O)(=O)N%10CC[C@@H](F)C%10)c9F)c8c7)cc5)C6)C4)ccc3C2=O)C(=O)N1 [Compound 100, (3R)-N-{3-[5-(4-{6-[(3-{2-[(3R)-2,6-dioxopiperidin-3-yl]-1-oxo-2,3-dihydro-1H-isoindol-5-yl}azetidin-1-yl)methyl]-2-azaspiro[3.3]heptan-2-yl}phenyl)-1H-pyrrolo[2,3-b]pyridine-3-carbonyl]-2,4-difluorophenyl}-3-fluoropyrrolidine-1-sulfonamide]

The remaining lines, values behind:

SMILES: O=C1CC[C@@H](N2Cc3cc(C4CCN(CC5CCN(c6ccc(-c7cnc8[nH]cc(C(=O)c9c(F)ccc(NS(=O)(=O)N%10CC[C@@H](F)C%10)c9F)c8c7)cc6F)CC5)CC4)ccc3C2=O)C(=O)N1 [Compound 88, (3R)-N-{3-[5-(4-{4-[(4-{2-[(3R)-2,6-dioxopiperidin-3-yl]-1-oxo-2,3-dihydro-1H-isoindol-5-yl}piperidin-1-yl)methyl]piperidin-1-yl}-3-fluorophenyl)-1H-pyrrolo[2,3-b]pyridine-3-carbonyl]-2,4-difluorophenyl}-3-fluoropyrrolidine-1-sulfonamide]
DC50 (BRAF V600E; [1]): < 5 nM
Dmax (BRAF V600E; [2]): 35 to 70%
DC50 (BRAF G466V; [3]): < 1 nM
Dmax (BRAF G466V; [4]): > 70%

SMILES: O=C1CCC(N2Cc3cc(OCCN4CC5(C4)CN(c4ccc(-c6cnc7[nH]cc(C(=O)c8c(F)ccc(NS(=O)(=O)N9CC[C@@H](F)C9)c8F)c7c6)cc4)C5)ccc3C2=O)C(=O)N1 (stereo partly drawn) [Compound 89, (3R)-N-[3-(5-{4-[6-(2-{[2-(2,6-dioxopiperidin-3-yl)-1-oxo-2,3-dihydro-1H-isoindol-5-yl]oxy}ethyl)-2,6-diazaspiro[3.3]heptan-2-yl]phenyl}-1H-pyrrolo[2,3-b]pyridine-3-carbonyl)-2,4-difluorophenyl]-3-fluoropyrrolidine-1-sulfonamide]
DC50 (BRAF V600E; [1]): < 5 nM
Dmax (BRAF V600E; [2]): 35 to 70%
DC50 (BRAF G466V; [3]): < 1 nM
Dmax (BRAF G466V; [4]): 35 to 70%

SMILES: O=C1CCC(N2Cc3cc(N4CCN(CC5CN(c6ncc(-c7cnc8[nH]cc(C(=O)c9c(F)ccc(NS(=O)(=O)N%10CC[C@@H](F)C%10)c9F)c8c7)cn6)C5)CC4)ccc3C2=O)C(=O)N1 (stereo partly drawn) [Compound 91, (3R)-N-[3-(5-{2-[3-({4-[2-(2,6-dioxopiperidin-3-yl)-1-oxo-2,3-dihydro-1H-isoindol-5-yl]piperazin-1-yl}methyl)azetidin-1-yl]pyrimidin-5-yl}-1H-pyrrolo[2,3-b]pyridine-3-carbonyl)-2,4-difluorophenyl]-3-fluoropyrrolidine-1-sulfonamide]
DC50 (BRAF V600E; [1]): 5 to 50 nM
Dmax (BRAF V600E; [2]): 35 to 70%
DC50 (BRAF G466V; [3]): 1 to 10 nM
Dmax (BRAF G466V; [4]): > 70%

SMILES: O=C1CCC(N2Cc3cc(N4CCC(CN5CC6(CCN(c7ccc(-c8cnc9[nH]cc(C(=O)c%10c(F)ccc(NS(=O)(=O)N%11CC[C@@H](F)C%11)c%10F)c9c8)cn7)C6)C5)CC4)ccc3C2=O)C(=O)N1 (stereo partly drawn) [Compound 92, (3R)-N-[3-(5-{6-[2-({1-[2-(2,6-dioxopiperidin-3-yl)-1-oxo-2,3-dihydro-1H-isoindol-5-yl]piperidin-4-yl}methyl)-2,6-diazaspiro[3.4]octan-6-yl]pyridin-3-yl}-1H-pyrrolo[2,3-b]pyridine-3-carbonyl)-2,4-difluorophenyl]-3-fluoropyrrolidine-1-sulfonamide]
DC50 (BRAF V600E; [1]): < 5 nM
Dmax (BRAF V600E; [2]): 35 to 70%
DC50 (BRAF G466V; [3]): 1 to 10 nM
Dmax (BRAF G466V; [4]): > 70%

SMILES: O=C1CCC(N2Cc3cc(N4CCC(CN5CC6(CCN(c7ncc(-c8cnc9[nH]cc(C(=O)c%10c(F)ccc(NS(=O)(=O)N%11CC[C@@H](F)C%11)c%10F)c9c8)cn7)C6)C5)CC4)ccc3C2=O)C(=O)N1 (stereo partly drawn) [Compound 93, (3R)-N-[3-(5-{2-[2-({1-[2-(2,6-dioxopiperidin-3-yl)-1-oxo-2,3-dihydro-1H-isoindol-5-yl]piperidin-4-yl}lmethyl)-2,6-diazaspiro[3.4]octan-6-yl]pyrimidin-5-yl}-1H-pyrrolo[2,3-b]pyridine-3-carbonyl)-2,4-difluorophenyl]-3-fluoropyrrolidine-1-sulfonamide]
DC50 (BRAF V600E; [1]): < 5 nM
Dmax (BRAF V600E; [2]): 35 to 70%
DC50 (BRAF G466V; [3]): 1 to 10 nM
Dmax (BRAF G466V; [4]): > 70%

SMILES: O=C1CCC(N2Cc3cc(N4CCC(CN5CCC6(CCN(c7ccc(-c8cnc9[nH]cc(C(=O)c%10c(F)ccc(NS(=O)(=O)N%11CC[C@@H](F)C%11)c%10F)c9c8)cn7)CC6)C5)CC4)ccc3C2=O)C(=O)N1 (stereo partly drawn) [Compound 95, (3R)-N-[3-(5-{6-[2-({1-[2-(2,6-dioxopiperidin-3-yl)-1-oxo-2,3-dihydro-1H-isoindol-5-yl]piperidin-4-yl}methyl)-2,8-diazaspiro[4.5]decan-8-yl]pyridin-3-yl}-1H-pyrrolo[2,3-b]pyridine-3-carbonyl)-2,4-difluorophenyl]-3-fluoropyrrolidine-1-sulfonamide]
DC50 (BRAF V600E; [1]): > 500 nM
DC50 (BRAF G466V; [3]): < 1 nM
Dmax (BRAF G466V; [4]): 35 to 70%

SMILES: CC(C)(C1CCN(c2ccc(-c3cnc4[nH]cc(C(=O)c5c(F)ccc(NS(=O)(=O)N6CC[C@@H](F)C6)c5F)c4c3)cc2)CC1)N1CCN(c2ccc3c(c2)CN(C2CCC(=O)NC2=O)C3=O)CC1 (stereo partly drawn) [Compound 97, (3R)-N-[3-(5-{4-[4-(2-{4-[2-(2,6-dioxopiperidin-3-yl)-1-oxo-2,3-dihydro-1H-isoindol-5-yl]piperazin-1-yl}propan-2-yl)piperidin-1-yl]phenyl}-1H-pyrrolo[2,3-b]pyridine-3-carbonyl)-2,4-difluorophenyl]-3-fluoropyrrolidine-1-sulfonamide]
Dmax (BRAF V600E; [2]): 35 to 70%
DC50 (BRAF V600E; read-out: BRaf V600E DC50; half maximal degradation, T-Rex 293 HA-BRAF V600E): 5 to 50 nM
Dmax (BRAF G466V; [4]): > 70%
DC50 (BRAF G466V; read-out: BRaf G466V DC50; half maximal degradation, T-Rex 293 HA-BRAF G466V): 1 to 10 nM

SMILES: O=C1CC[C@H](N2Cc3cc(C4CN(CC5CC6(C5)CN(c5ccc(-c7cnc8[nH]cc(C(=O)c9c(F)ccc(NS(=O)(=O)N%10CC[C@@H](F)C%10)c9F)c8c7)cc5)C6)C4)ccc3C2=O)C(=O)N1 [Compound 99, (3R)-N-{3-[5-(4-{6-[(3-{2-[(3S)-2,6-dioxopiperidin-3-yl]-1-oxo-2,3-dihydro-1H-isoindol-5-yl}azetidin-1-yl)methyl]-2-azaspiro[3.3]heptan-2-yl}phenyl)-1H-pyrrolo[2,3-b]pyridine-3-carbonyl]-2,4-difluorophenyl}-3-fluoropyrrolidine-1-sulfonamide]
DC50 (BRAF V600E; [1]): 5 to 50 nM
Dmax (BRAF V600E; [2]): 35 to 70%
DC50 (BRAF G466V; [3]): 1 to 10 nM
Dmax (BRAF G466V; [4]): > 70%

SMILES: O=C1CCC(N2Cc3cc(N4CCN(CC5CN(c6ccc(-c7cnc8[nH]cc(C(=O)c9c(F)ccc(NS(=O)(=O)N%10CC[C@@H](F)C%10)c9F)c8c7)cn6)C5)CC4)ccc3C2=O)C(=O)N1 (stereo partly drawn) [Compound 101, (3R)-N-[3-(5-{6-[3-({4-[2-(2,6-dioxopiperidin-3-yl)-1-oxo-2,3-dihydro-1H-isoindol-5-yl]piperazin-1-yl}methyl)azetidin-1-yl]pyridin-3-yl}-1H-pyrrolo[2,3-b]pyridine-3-carbonyl)-2,4-difluorophenyl]-3-fluoropyrrolidine-1-sulfonamide]
DC50 (BRAF V600E; [1]): 5 to 50 nM
Dmax (BRAF V600E; [2]): 35 to 70%
DC50 (BRAF G466V; [3]): 1 to 10 nM
Dmax (BRAF G466V; [4]): > 70%
